Measurements reported in patent publication US20250186442A1, “Obicetrapib and Ezetimibe Combination Treatment and Fixed Dose Pharmaceutical Compositions” (NewAmsterdam Pharma B.V., priority 2022, published 2025).
Like-named read-outs stand apart in the source and are kept apart here.

Columns and labels:
[1] = system: critical physiological systems; conditions: doses up to 300 mg/kg in rats; cited from earlier work
[2] = system: Lp(a); conditions: TA-8995-06; following 12 weeks of treatment; cited from earlier work
[3] = healthy volunteers; single doses up to 150 mg and multiple doses up to 25 mg/day for 21 days; cited from earlier work
[4] = system: LDL-C; experiment: ROSE2 phase 2b clinical trial - LDL-C; format: in vivo, human; conditions: for LDL-C Change from Baseline to Day 28, Mean / LDL-C Change from Baseline to Day 28, Median / LDL-C Change from Baseline to Day 84, Mean / LDL-C Change from Baseline to Day 84, Median / LDL-C Day 28, Mean / LDL-C Day 28, Median / LDL-C Day 84, Mean / LDL-C Day 84, Median / LDL-C Percent Change from Baseline to Day 28 (%), Mean / LDL-C Percent Change from Baseline to Day 28 (%), Median / LDL-C Percent Change from Baseline to Day 84 (%), Mean / LDL-C Percent Change from Baseline to Day 84 (%), Median: obicetrapib 10 mg, ezetimibe 10 mg
Description: The primary objective of this study is to evaluate the effect of obicetrapib 10 mg+ezetimibe 10 mg combination therapy compared with placebo, when used as an adjunct to high-intensity statin therapy, on LDL-C at Day 84.
The secondary objectives of this study include the following, in hierarchical order: • To evaluate the effect of obicetrapib 10 mg monotherapy compared with placebo, when used as an adjunct to high-intensity statin therapy, on LDL-C at Day 84; • To evaluate the effect of obicetrapib 10 mg+ezetimibe 10 mg combination therapy compared with placebo, when used as an adjunct to high-intensity statin therapy, on ApoB at Day 84; and • To evaluate the effect of obicetrapib 10 mg monotherapy compared with placebo, when used as an adjunct to high-intensity statin therapy, on ApoB at Day 84.
This study will be a placebo-controlled, double-blind, randomized, Phase 2 study to evaluate the efficacy, safety, and tolerability of obicetrapib 10 mg, both in combination with ezetimibe 10 mg and as monotherapy, as an adjunct to high-intensity statin therapy. This study will take place at approximately 20 sites in the United States.
Up to 2 weeks after the Screening Visit, participants will return to the site on Day 1 (Visit 2) and confirm study eligibility before being randomized and beginning treatment. Approximately 114 eligible participants (38 participants per treatment group) will be randomized in a 1:1:1 ratio to 1 of the following treatment groups: • Combination therapy: Obicetrapib 10 mg+ezetimibe 10 mg (administered as one 10 mg obicetrapib tablet and one 10 mg ezetimibe capsule); • Obicetrapib monotherapy: Obicetrapib 10 mg (administered as one 10 mg obicetrapib tablet and 1 placebo capsule); or • Placebo (administered as 1 placebo tablet and 1 placebo capsule).
During the 12-week Treatment Period, the assigned study drugs will be administered by the participants orally with water, once daily on Day 1 to Day 84 at approximately the same time each morning. Participants will return to the site on Day 28 (+2 days), Day 84 (+2 days), and Day 112 (+2 days) for efficacy, safety, and pharmacokinetic (PK) assessments. Participants, Investigators, the Clinical Research Organization (CRO), and the Sponsor will be blinded to all lipid results from Day 1 (Visit 2) for the first participant until all enrolled participants complete the Day 84 (End of Treatment) visit or are withdrawn from the study, in order to protect blinding to treatment assignment.
The primary efficacy endpoint is the percent change from Day 1 to Day 84 in LDL-C for the obicetrapib 10 mg+ezetimibe 10 mg combination treatment group compared with the placebo group.
The secondary efficacy endpoints include the following, in hierarchical order: • Percent change from Day 1 to Day 84 in LDL-C for the obicetrapib 10 mg monotherapy • treatment group compared with the placebo group; • Percent change from Day 1 to Day 84 in ApoB for the obicetrapib 10 mg+ezetimibe 10 mg • combination treatment group compared with the placebo group; and • Percent change from Day 1 to Day 84 in ApoB for the obicetrapib 10 mg monotherapy treatment group compared with the placebo group.
The exploratory efficacy endpoints include the following: • Percent change from Day 1 to Day 84 in non-HDL-C, VLDL-C, HDL-C, TG, ApoE, Lp(a), and HDL-ApoE for the obicetrapib 10 mg+ezetimibe 10 mg combination treatment group compared with the placebo group and for the obicetrapib 10 mg monotherapy treatment group compared with the placebo group; and • Proportion of participants at Day 84 that achieve LDL-C<2.6 mmol/L (<100 mg/dL), LDL-C<1.8 mmol/L (<70 mg/dL), and LDL-C<1.3 mmol/L (<50 mg/dL) for the obicetrapib 10 mg+ezetimibe 10 mg combination treatment group compared with the placebo group and for the obicetrapib 10 mg monotherapy treatment group compared with the placebo group. […]

[5] = patients; daily dosing of 10 mg for 12 weeks, alone and with 2 different statins; cited from earlier work
[6] = system: LDL-C; conditions: cited from earlier work
[7] = TA-8995-07, healthy males; cited from earlier work
[8] = molecular target: T1, P-glycoprotein (Homo sapiens, UniProt P08183); conditions: TA-8995-05; cited from earlier work
T1 construct: endogenous in cells; host or cells: study subjects in vivo (clinical study)
T1 sequence (P08183 whole entry): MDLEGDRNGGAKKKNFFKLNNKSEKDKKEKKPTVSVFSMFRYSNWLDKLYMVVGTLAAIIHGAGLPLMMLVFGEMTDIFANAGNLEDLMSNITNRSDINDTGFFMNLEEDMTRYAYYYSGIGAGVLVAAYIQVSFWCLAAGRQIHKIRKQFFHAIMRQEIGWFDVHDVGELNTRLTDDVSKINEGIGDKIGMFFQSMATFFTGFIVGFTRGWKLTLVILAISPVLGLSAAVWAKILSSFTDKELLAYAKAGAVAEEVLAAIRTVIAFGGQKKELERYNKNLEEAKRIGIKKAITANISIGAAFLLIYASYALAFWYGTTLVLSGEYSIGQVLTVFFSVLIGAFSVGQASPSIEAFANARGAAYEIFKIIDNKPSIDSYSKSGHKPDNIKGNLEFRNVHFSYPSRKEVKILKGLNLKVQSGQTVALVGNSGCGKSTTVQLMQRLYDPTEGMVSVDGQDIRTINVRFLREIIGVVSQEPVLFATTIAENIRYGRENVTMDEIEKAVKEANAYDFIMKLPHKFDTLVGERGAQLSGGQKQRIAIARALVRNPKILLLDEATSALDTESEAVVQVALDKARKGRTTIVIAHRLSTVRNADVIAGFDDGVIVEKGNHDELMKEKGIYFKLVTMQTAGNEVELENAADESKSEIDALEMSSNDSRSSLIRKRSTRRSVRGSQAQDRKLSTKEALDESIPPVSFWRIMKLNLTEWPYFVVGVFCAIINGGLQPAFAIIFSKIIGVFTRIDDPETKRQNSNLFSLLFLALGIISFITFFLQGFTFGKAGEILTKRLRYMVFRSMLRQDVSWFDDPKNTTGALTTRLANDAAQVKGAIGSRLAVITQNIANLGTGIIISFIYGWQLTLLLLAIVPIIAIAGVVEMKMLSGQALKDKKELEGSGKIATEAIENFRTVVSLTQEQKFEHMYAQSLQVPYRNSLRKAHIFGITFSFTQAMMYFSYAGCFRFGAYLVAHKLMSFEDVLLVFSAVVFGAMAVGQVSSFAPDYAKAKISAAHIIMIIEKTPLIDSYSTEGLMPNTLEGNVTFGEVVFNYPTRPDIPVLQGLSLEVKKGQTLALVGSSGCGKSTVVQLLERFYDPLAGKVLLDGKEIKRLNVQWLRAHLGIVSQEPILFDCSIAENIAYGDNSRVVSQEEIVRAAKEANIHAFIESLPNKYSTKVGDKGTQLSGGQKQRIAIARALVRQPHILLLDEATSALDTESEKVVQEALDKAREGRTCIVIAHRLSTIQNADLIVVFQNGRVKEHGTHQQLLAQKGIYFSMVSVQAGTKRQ

[9] = Solubility in water; format: physicochemical; conditions: in water at 20° C.
Excerpt: Solubility is especially challenging with obicetrapib. […] It would be desirable to have a solid form of obicetrapib that would deliver a larger amount of obicetrapib.

[10] = system: ApoA1; conditions: TA-8995-03; 10 mg daily dose, mild dyslipidemia; cited from earlier work
[11] = system: HDL-C; conditions: TA-8995-03; 10 mg daily dose, mild dyslipidemia; cited from earlier work
[12] = system: QTcF; conditions: TA-8995-04; cited from earlier work

CCOC(=O)N1c2ccc(C(F)(F)F)cc2[C@@H](N(Cc2cc(C(F)(F)F)cc(C(F)(F)F)c2)c2ncc(OCCCC(=O)O)cn2)C[C@H]1CC [Obicetrapib, {4-[(2-{[3,5-bis(trifluoromethyl)benzyl][(2R,4S)-1-(ethoxycarbonyl)-2-ethyl-6-(trifluoromethyl)-1,2,3,4-tetrahydroquinolin-4-yl]amino}pyrimidin-5-yl)oxy]butanoic acid}]
adverse effect on critical physiological systems [1]: no adverse effect
Lp(a) levels [2]: statistically significant reduction
tolerability [3]: generally well tolerated
LDL-C Change from Baseline to Day 28, Mean ([4]; Exploratory Population): -43.0 mg/dL
LDL-C Change from Baseline to Day 28, Median ([4]; Exploratory Population): -45.0 mg/dL
LDL-C Change from Baseline to Day 84, Mean ([4]; Exploratory Population): -39.9 mg/dL
LDL-C Change from Baseline to Day 84, Median ([4]; Exploratory Population): -38.5 mg/dL
LDL-C Day 28, Mean ([4]; Exploratory Population): 57.6 mg/dL
LDL-C Day 28, Median ([4]; Exploratory Population): 51.5 mg/dL
LDL-C Day 84, Mean ([4]; Exploratory Population): 60.7 mg/dL
LDL-C Day 84, Median ([4]; Exploratory Population): 55.5 mg/dL
LDL-C Percent Change from Baseline to Day 28 (%), Mean ([4]; Exploratory Population): −43.59%
LDL-C Percent Change from Baseline to Day 28 (%), Median ([4]; Exploratory Population): −43.90%
LDL-C Percent Change from Baseline to Day 84 (%), Mean ([4]; Exploratory Population): −39.35%
LDL-C Percent Change from Baseline to Day 84 (%), Median ([4]; Exploratory Population): −43.50%
median reduction in LDL-C ([4]; ROSE2 phase 2b (NCT05266586), obicetrapib 10 mg with or without ezetimibe 10 mg): 39%
LDL-C Change from Baseline to Day 28, Mean ([4]; mITT Population): -33.2 mg/dL
LDL-C Change from Baseline to Day 28, Median ([4]; mITT Population): -35.0 mg/dL
LDL-C Change from Baseline to Day 84, Mean ([4]; mITT Population): -21.3 mg/dL
LDL-C Change from Baseline to Day 84, Median ([4]; mITT Population): -29.5 mg/dL
LDL-C Day 28, Mean ([4]; mITT Population): 70.3 mg/dL
LDL-C Day 28, Median ([4]; mITT Population): 56.0 mg/dL
LDL-C Day 84, Mean ([4]; mITT Population): 82.7 mg/dL
LDL-C Day 84, Median ([4]; mITT Population): 65.0 mg/dL
LDL-C Percent Change from Baseline to Day 28 (%), Mean ([4]; mITT Population): −32.21%
LDL-C Percent Change from Baseline to Day 28 (%), Median ([4]; mITT Population): −41.70%
LDL-C Percent Change from Baseline to Day 84 (%), Mean ([4]; mITT Population): −18.92%
LDL-C Percent Change from Baseline to Day 84 (%), Median ([4]; mITT Population): −32.35%
tolerability [5]: well tolerated
LDL-C reduction ([6]; TA-8995-03, 10 mg daily dose, mild dyslipidemia): 45.4%
additional reduction in LDL-C ([6]; obicetrapib 10 mg on top of atorvastatin 20 mg): 50.3%
absorption [7]: steadily absorbed
principal route of excretion [7]: in the feces
effect on P-glycoprotein activity [8]: no significant effect
solubility [9]: < 100 µg/mL
ApoA1 increase [10]: 63.4%
HDL-C efflux capacity [11]: significant increase
HDL-C increase [11]: 179.0%
effect on the QTcF [12]: no effect
